Residues, ends and D or L forms follow the SMILES beside them.

For the experiment, the system named is Healthy albino mice. The experiment is described as follows: Serum TG elevation inhibiting action at the time of in vivo lipid loading (olive oil). The note with it: for Ratio of Increase in Blood TG Levels (%): blood collected 3 hours after. The method, then:
Serum TG elevation inhibiting action at the time of in vivo lipid loading was examined on the three peptides of the invention inhibiting elevations of TG levels in blood (i.e., the peptide having the amino acid sequence of SEQ ID NO: 1 and the peptides Val-Thr-Leu and Val-Tyr-Pro synthesized by the method described in Example 4). Healthy albino mice (5-10 weeks old; body weight: about 20-30 g) were used in this experiment. To each mouse, 250 mg of olive oil and an aqueous solution of the above peptide were administered orally. Three hours thereafter, blood was collected under anesthesia with Nembutal. After separation of the blood, the TG level in blood was determined.

As to `CC(C)C[C@H](NC(=O)[C@@H](NC(=O)[C@@H](N)C(C)C)[C@@H](C)O)C(=O)O` [Val--Thr--Leu, H-Val-Thr-Leu-OH] (H-Val-Thr-Leu-OH), the “Ratio of Increase in Blood TG Levels (%)” value is recorded as 30% (dose 0.1 mg/mouse oral with 250 mg olive oil); 33% (dose 0.2 mg/mouse oral with 250 mg olive oil); 73% (dose 1.0 mg/mouse oral with 250 mg olive oil); 76% (dose 2.5 mg/mouse oral with 250 mg olive oil); 79% (dose 5.0 mg/mouse oral with 250 mg olive oil). For the same compound, under “oral, mice loaded with 250 mg olive oil, blood TG after 3 hours”, the “ID50: Dose (mg/mouse) exhibiting 50% inhibition” value was 0.43 mg/mouse. Further, the “Specific Activity” value (relative to the proteolysate (= 1), times) is reported as 65.
